From ChEMBL document CHEMBL3596162, “Biaryls as potent, tunable dual neurokinin 1 receptor antagonists and serotonin transporter inhibitors” (Bioorg Med Chem Lett, 2015) come the findings set out here.

Assay [1] concerns the target Substance-P receptor (Meriones unguiculatus, UniProt Q5DUB1). The assay is described as follows: Displacement of [125I]-substance P from gerbil NK1 receptor expressed in HEK293 cell membranes incubated for 30 mins by liquid scintillation counting method. Further details: species or system Gerbillinae. On the technique in general: In a radioligand displacement assay an active substance lowers the binding of a labelled ligand.

The nature of assay [2]: Displacement of [3H]-citalopram from gerbil SERT expressed in HEK293 cell membranes incubated for 60 mins by liquid scintillation counting method. Further details: species or system Gerbillinae.
Assay [3] concerns HEK293. The assay is described as follows: Selectivity index, ratio of IC50 for gerbil SERT expressed in HEK293 cell membranes to IC50 for gerbil NK1 receptor expressed in HEK293 cell membranes. The class given is cell-based. The note with it: Gerbillinae.

Substance-P receptor, sequence (Q5DUB1 whole entry): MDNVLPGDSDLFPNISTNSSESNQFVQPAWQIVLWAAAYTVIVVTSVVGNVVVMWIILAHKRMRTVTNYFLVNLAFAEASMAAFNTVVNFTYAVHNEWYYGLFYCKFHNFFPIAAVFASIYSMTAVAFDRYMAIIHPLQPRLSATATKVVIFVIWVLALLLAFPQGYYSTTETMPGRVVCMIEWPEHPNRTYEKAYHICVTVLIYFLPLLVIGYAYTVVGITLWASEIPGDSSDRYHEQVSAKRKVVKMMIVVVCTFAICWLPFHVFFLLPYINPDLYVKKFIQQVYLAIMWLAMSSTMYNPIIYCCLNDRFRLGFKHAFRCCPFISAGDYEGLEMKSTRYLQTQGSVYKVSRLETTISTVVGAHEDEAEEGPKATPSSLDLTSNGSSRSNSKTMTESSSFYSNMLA

A word on the IC50: it is the point on the concentration scale where inhibition reaches its midpoint. Low values mean higher potency, high ones lower potency. With `COC(=O)c1ccc(-c2cc(COCC3(c4ccccc4)CCNCC3)cc(C(F)(F)F)c2)cc1`, the IC50 in assay [1] turned out to be 17 nM; in assay [2] it was 25 nM. For the same compound, the Ratio IC50 in assay [3] is 1.
On to `Fc1cccc(-c2cc(COCC3(c4ccccc4)CCNCC3)cc(C(F)(F)F)c2)c1`, for which the half-maximal inhibitory concentration (IC50) in assay [1] was found to be 5 nM; in assay [2] it was 6.3 nM. In addition, the Ratio IC50 in assay [3] was 1.
In turn, `COc1ccc(-n2nnnc2C)cc1CO[C@H]1CCCN[C@H]1c1ccccc1` showed an IC50 in assay [1] of 0.05 nM.
Turning to `Cc1ccccc1-c1cc(COCC2(c3ccccc3)CCNCC2)cc(C(F)(F)F)c1`, the IC50 in assay [1] is 130 nM; in assay [2], 13 nM. In addition, the Ratio IC50 in assay [3] came to 0.1.
Turning to `O=[N+]([O-])c1cccc(-c2cc(COCC3(c4ccccc4)CCNCC3)cc(C(F)(F)F)c2)c1`, the IC50 in assay [1] worked out at 5.2 nM; in assay [2], 4.2 nM. Besides, the Ratio IC50 in assay [3] is 0.8.
Consider `N#Cc1ccc(-c2cc(COCC3(c4ccccc4)CCNCC3)cc(C(F)(F)F)c2)cc1Cl`, for which the IC50 in assay [1] stood at 1.1 nM; in assay [2], 3.1 nM. Moreover, the Ratio IC50 in assay [3] amounted to 3.
Regarding `FC(F)(F)c1cc(COCC2(c3ccccc3)CCNCC2)cc(-c2ccncc2)c1`, the IC50 in assay [1] is 1.6 nM; in assay [2] it was 16 nM. In assay [3], the Ratio IC50 is 10.
For `O=[N+]([O-])c1ccccc1-c1cc(COCC2(c3ccccc3)CCNCC2)cc(C(F)(F)F)c1` the same measures were 6.5 nM, 3.5 nM and 0.5.
In turn, `C[C@@H](O[C@H]1OCCN(Cc2n[nH]c(=O)[nH]2)[C@H]1c1ccc(F)cc1)c1cc(C(F)(F)F)cc(C(F)(F)F)c1` [APREPITANT] gave an IC50 in assay [1] of 0.09 nM.
`COc1ccc(-n2nnnc2C)cc1COCC1(c2ccccc2)CCNCC1`: the IC50 in assay [1] was 87 nM; in assay [2] it was 37 nM. The Ratio IC50 in assay [3] was determined as 0.4.
With `FC(F)(F)c1cc(COCC2(c3ccccc3)CCNCC2)cc(-c2ccccc2Cl)c1`, the IC50 stood at 68 nM in assay [1] and 6.4 nM in assay [2]. The Ratio IC50 in assay [3] was found to be 0.1.
In the case of `Cn1nnnc1-c1cc(COCC2(c3ccccc3)CCNCC2)cc(C(F)(F)F)c1`, the results for the IC50 in assay [1] and in assay [2] were 65 nM and 50 nM, respectively. For the same compound, the Ratio IC50 in assay [3] came out at 0.8.
Regarding `Cn1nnc(-c2cc(COCC3(c4ccccc4)CCNCC3)cc(C(F)(F)F)c2)n1`, the IC50 in assay [1] was found to be 36 nM; in assay [2], 9.6 nM. Further, the Ratio IC50 in assay [3] was 0.3.
For `N#Cc1cc(F)c(-c2cc(COCC3(c4ccccc4)CCNCC3)cc(C(F)(F)F)c2)cc1F` the same measures were 0.91 nM, 3.7 nM and 4.
`FC(F)(F)c1cc(COCC2(c3ccccc3)CCNCC2)cc(-n2nnnc2C(F)(F)F)c1`: the values for the IC50 in assay [1] and in assay [2] were 700 nM and 57 nM, respectively. For the same compound, the Ratio IC50 in assay [3] stood at 0.08.
As to `FC(F)(F)c1cc(COCC2(c3ccccc3)CCNCC2)cc(-c2nnn[nH]2)c1`, the IC50 in assay [1] was determined as 200 nM; in assay [2], 8.6 nM. Besides, the Ratio IC50 in assay [3] was 0.04.
For `N#Cc1ccc(-c2cc(COCC3(c4ccccc4)CCNCC3)cc(C(F)(F)F)c2)cc1F` the same measures were 1.1 nM, 8.9 nM and 8.
Regarding `Fc1ccc(-c2cc(COCC3(c4ccccc4)CCNCC3)cc(C(F)(F)F)c2)cc1`, the half-inhibitory concentration (IC50) turned out to be 2.2 nM in assay [1] and 1.5 nM in assay [2]. Besides, the Ratio IC50 in assay [3] was 0.7.
For `Cc1cc(-c2cc(COCC3(c4ccccc4)CCNCC3)cc(C(F)(F)F)c2)ccc1C#N` the same measures were 1.2 nM, 2.7 nM and 2.
Take `COc1ccc(-n2cnnn2)cc1CO[C@H]1CCCN[C@H]1c1ccccc1`: the half-inhibitory concentration (IC50) in assay [1] is 0.05 nM.
For `CC(C)N1CCC(COCc2cc(-c3ccc(C#N)cc3)cc(C(F)(F)F)c2)(c2ccccc2)CC1`, the IC50 in assay [1] came out at 0.39 nM; in assay [2], 450 nM. Moreover, the Ratio IC50 in assay [3] turned out to be 1200.
On to `N#Cc1ccc(-c2cc(COCC3(c4ccccc4)CCN(Cc4ccccc4)CC3)cc(C(F)(F)F)c2)cc1`, for which the IC50 in assay [1] is 2 nM; in assay [2] it was 800 nM. In addition, the Ratio IC50 in assay [3] was 400.
For `N#Cc1cccc(-c2cc(COCC3(c4ccccc4)CCNCC3)cc(C(F)(F)F)c2)c1` the same measures were 49 nM, 10 nM and 0.2.
In the case of `FC(F)(F)c1cc(COCC2(c3ccccc3)CCNCC2)cc(-c2ccc3ccccc3c2)c1`, the 50% inhibitory concentration (IC50) in assay [1] amounted to 120 nM; in assay [2], 110 nM. Moreover, the Ratio IC50 in assay [3] was found to be 0.9.
With `N#Cc1ccc(-c2cc(COCC3(c4ccccc4)CCNCC3)cc(C(F)(F)F)c2)nc1`, the IC50 in assay [1] stood at 8.1 nM; in assay [2], 4 nM. Moreover, in assay [3], the Ratio IC50 was found to be 0.5.
Regarding `FC(F)(F)c1cc(COCC2(c3ccccc3)CCNCC2)cc(-c2nccs2)c1`, the IC50 in assay [1] amounted to 70 nM; in assay [2], 4.1 nM. Also, the Ratio IC50 in assay [3] amounted to 0.06.
With `COc1ccc(-c2cc(COCC3(c4ccccc4)CCNCC3)cc(C(F)(F)F)c2)cc1`, the results for the IC50 in assay [1] and in assay [2] were 0.93 nM and 15 nM, respectively. In addition, in assay [3], the Ratio IC50 was found to be 16.
In the case of `Oc1cccc(-c2cc(COCC3(c4ccccc4)CCNCC3)cc(C(F)(F)F)c2)c1`, the half-maximal inhibitory concentration (IC50) in assay [1] turned out to be 13 nM; in assay [2] it was 27 nM. Also, the Ratio IC50 in assay [3] was 2.
Take `Cc1ccc(-c2cc(COCC3(c4ccccc4)CCNCC3)cc(C(F)(F)F)c2)cc1`: the IC50 in assay [1] came out at 8.4 nM; in assay [2], 6.4 nM. Moreover, the Ratio IC50 in assay [3] is 0.8.
Regarding `N#Cc1c(F)c(F)c(-c2cc(COCC3(c4ccccc4)CCNCC3)cc(C(F)(F)F)c2)c(F)c1F`, the values for the IC50 in assay [1] and in assay [2] were 4.8 nM and 47 nM, respectively. The Ratio IC50 in assay [3] came to 10.
As for `FC(F)(F)c1cc(COCC2(c3ccccc3)CCNCC2)cc(-c2ccc3c(c2)OCO3)c1`, the values for the IC50 in assay [1] and in assay [2] were 7.1 nM and 45 nM, respectively. Besides, the Ratio IC50 in assay [3] came out at 6.
For `CCOc1ccc(-c2cc(COCC3(c4ccccc4)CCNCC3)cc(C(F)(F)F)c2)cc1`, in that order: 3.4 nM, 14 nM and 4.
Compound `COc1ccc(-n2nnnc2C(F)(F)F)cc1CO[C@H]1CCCN[C@H]1c1ccccc1` displayed an IC50 in assay [1] of 0.03 nM.
Regarding `FC(F)(F)c1ccc(-c2cc(COCC3(c4ccccc4)CCNCC3)cc(C(F)(F)F)c2)cc1`, the IC50 in assay [1] is 30 nM; in assay [2] it was 36 nM. The Ratio IC50 in assay [3] amounted to 1.
Consider `CCN1CCC(COCc2cc(-c3ccc(C#N)cc3)cc(C(F)(F)F)c2)(c2ccccc2)CC1`, for which the concentration for half-maximal inhibition (IC50) in assay [1] worked out at 0.25 nM; in assay [2], 420 nM. Further, the Ratio IC50 in assay [3] is 1700.
For `O=[N+]([O-])c1ccc(-c2cc(COCC3(c4ccccc4)CCNCC3)cc(C(F)(F)F)c2)cc1`, the figures for the IC50 in assay [1] and in assay [2] were 3.8 nM and 7.3 nM, respectively. The Ratio IC50 in assay [3] amounted to 2.
For `CN(C)c1ccc(-c2cc(COCC3(c4ccccc4)CCNCC3)cc(C(F)(F)F)c2)cc1`, in that order: 18 nM, 3.5 nM and 0.2.
Regarding `FC(F)(F)c1cc(COCC2(c3ccccc3)CCNCC2)cc(-c2ccco2)c1`, the figures for the IC50 in assay [1] and in assay [2] were 47 nM and 18 nM, respectively. Moreover, the Ratio IC50 in assay [3] amounted to 0.4.
